What all share (experiment): NCI-60 cell line screen, 48 h
The subject of assay [1] is M14.
Assay [2] relates to UACC-257.
Assay [3] relates to SK-MEL-2.
Assay [4] concerns UACC-62.
The test system of assay [5] is HCC 2998.
Assay [6] relates to HT-29.
Assay [7] relates to MOLT-4.
Assay [8] has as its system BT-549.
Assay [9] concerns NCI-H522.
Assay [10] deals with OVCAR-5.
For assay [11], the system named is EKVX.
Assay [12] deals with Hs-578T.
Assay [13] has as its system SR.
Assay [14] relates to T47D.
The test system of assay [15] is SK-OV-3.
Assay [16] deals with SF-539.
Assay [17] concerns U-251.
For assay [18], the system named is UO-31.
In assay [19] the test system is OVCAR-4.
In assay [20] the test system is SF-268.

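Test compounds were applied to cells in 96-well plates for 48 hours at 5 doses. Abbreviation: GI50, concentration required for 50% inhibition of growth.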 Active and inactive are the calls of the source. No stated cut-off is given here; in the data, active = GI50 up to about 1.1 µM and inactive = higher.

Consider `COc1ccc(C2c3c(-c4ccccc4)nn(-c4ccccc4)c3Oc3ncn(N)c(=N)c32)cc1OC` (stereo not given), for which the GI50 in assay [1] is 2.04 µM (inactive); in assay [2], 1.95 µM (inactive); in assay [3], 1.83 µM (inactive); in [4], 1.92 µM (inactive); in assay [5] it was 1.74 µM (inactive); in [6] it was 1.93 µM (inactive). The GI50 is 3.41 µM (inactive) in assay [7]; 4.74 µM (inactive) in assay [8]; 2.21 µM (inactive) in assay [9]; 3.9 µM (inactive) in assay [10]; 1.91 µM (inactive) in [11]; 1.97 µM (inactive) in assay [12]. Further, the GI50 in assay [13] is 3.53 µM (inactive); in assay [14], 1.97 µM (inactive); in assay [15], 6.53 µM (inactive); in assay [16], 1.69 µM (inactive); in assay [17], 4.53 µM (inactive); in [18], 1.68 µM (inactive). Also, the results for the GI50 in [19] and in assay [20] were 2.45 µM (inactive) and 3.03 µM (inactive), respectively.
As for `CN(CCCNC(=O)c1nn(C)c2c1Cc1ccccc1-2)CCCNC(=O)c1nn(C)c2c1Cc1ccccc1-2`, the GI50 was 6.15 µM (inactive) in assay [1]; 12.1 µM (inactive) in assay [2]; 16 µM (inactive) in assay [3]; 19.4 µM (inactive) in assay [4]; 8.22 µM (inactive) in [5]; 13.3 µM (inactive) in [6]. In addition, the GI50 in assay [7] is 4.73 µM (inactive); in [8], 21 µM (inactive); in [9], 21.8 µM (inactive); in [10], 18.3 µM (inactive); in assay [11] it was 19.2 µM (inactive); in [12], 20.5 µM (inactive). Besides, the GI50 in assay [13] was 2.99 µM (inactive); in assay [14] it was 22.5 µM (inactive); in [15], 16 µM (inactive); in assay [16], 16.4 µM (inactive); in assay [17], 12.5 µM (inactive); in assay [18] it was 0.614 µM (active). Moreover, the GI50 in assay [19] was 16.3 µM (inactive); in assay [20] it was 19.2 µM (inactive).
Take `CCC1(O)C(=O)OCc2c1cc1n(c2=O)Cc2cc3ccccc3nc2-1` (stereo not given): the GI50 in [1] was < 0.01 µM (active); in assay [2] it was 0.417 µM (active); in [3] it was 0.575 µM (active); in assay [4], 0.0128 µM (active); in assay [5], 0.895 µM (active); in assay [6], 0.0653 µM (active). The GI50 in assay [7] was < 0.01 µM (active); in [8] it was 0.211 µM (active); in [9], 0.0471 µM (active); in assay [10], 0.347 µM (active); in [11] it was 0.0869 µM (active); in assay [12], 7.73 µM (inactive). For the same molecule, the GI50 was < 0.01 µM (active) in assay [13]; 0.0237 µM (active) in assay [14]; 0.0312 µM (active) in assay [15]; 0.0157 µM (active) in assay [16]; 0.0261 µM (active) in assay [17]; 0.0235 µM (active) in assay [18]. Also, the GI50 is 0.504 µM (active) in [19] and < 0.0168 µM (active) in assay [20].
For the molecule `COC(=O)C1(Cc2ccc3c(c2)CCC3)Cc2cc3c(cc2C1)CCC3`, the GI50 is 35.2 µM (inactive) in [1]; 19.5 µM (inactive) in assay [2]; 19.9 µM (inactive) in assay [3]; 71.3 µM (inactive) in [4]; 27.2 µM (inactive) in assay [5]; 22.5 µM (inactive) in assay [6]. The GI50 in assay [7] is 29.8 µM (inactive); in [8], 42.7 µM (inactive); in assay [9], 22.1 µM (inactive); in assay [10], 55.6 µM (inactive); in assay [11], 45.2 µM (inactive); in [12] it was 65.6 µM (inactive). Besides, the GI50 is 78.7 µM (inactive) in [13]; 21.4 µM (inactive) in [14]; > 100 µM (inactive) in assay [15]; > 100 µM (inactive) in assay [16]; 37.4 µM (inactive) in assay [17]; 49.9 µM (inactive) in assay [18]. Also, the GI50 in assay [19] is 32.2 µM (inactive); in assay [20], 30.3 µM (inactive).
As to `COc1ccc(C2=C(Cl)c3cc(OC)c(OC)cc3C2Cl)cc1` (stereo not given), the GI50 in assay [1] was 17.2 µM (inactive); in [2] it was 17.1 µM (inactive); in assay [3], 12.1 µM (inactive); in assay [4], 14.6 µM (inactive); in assay [5], 14.3 µM (inactive); in assay [6], 14.8 µM (inactive). Besides, the GI50 was 4.34 µM (inactive) in assay [7]; 3.78 µM (inactive) in [8]; 12.5 µM (inactive) in [9]; 15.5 µM (inactive) in assay [10]; 16.9 µM (inactive) in assay [11]; 17.3 µM (inactive) in [12]. For the same molecule, the GI50 in assay [13] is 3.27 µM (inactive); in [14], 13.3 µM (inactive); in [15], 13.6 µM (inactive); in assay [16], 15.3 µM (inactive); in [17] it was 13.7 µM (inactive); in assay [18] it was 6.55 µM (inactive). For the same molecule, the GI50 is 13.6 µM (inactive) in assay [19] and 16 µM (inactive) in assay [20].
On to `Cc1nc(Nc2nc3ccccc3[nH]2)[nH]c(=O)c1CCO`, for which the GI50 was 27.2 µM (inactive) in assay [1]; 45.8 µM (inactive) in assay [2]; 37.2 µM (inactive) in assay [3]; 68.9 µM (inactive) in assay [4]; > 100 µM (inactive) in [5]; > 100 µM (inactive) in assay [6]. For the same molecule, the GI50 in assay [7] was > 100 µM (inactive); in assay [8] it was > 100 µM (inactive); in assay [9], > 100 µM (inactive); in assay [10] it was > 86.9 µM (inactive); in assay [11], > 100 µM (inactive); in [12] it was 20.6 µM (inactive). In addition, the GI50 in [13] was 30.9 µM (inactive); in assay [14], 7.6 µM (inactive); in [15], 38.3 µM (inactive); in assay [16], 39.9 µM (inactive); in assay [17], 59.8 µM (inactive); in assay [18] it was 46.8 µM (inactive). In addition, the GI50 was > 100 µM (inactive) in assay [19] and > 96.6 µM (inactive) in [20].
Consider `CN1CC[C@]23c4c5ccc(O)c4OC2c2[nH]ncc2C[C@H]3[C@H]1C5` (stereo not given in full), for which the GI50 in assay [1], in assay [2], in assay [3], in assay [4], in assay [5] and in [6] was > 100 µM (inactive) in each case. Also, the GI50 in assay [7], in assay [8], in [9], in assay [10], in [11] and in [12] was > 100 µM (inactive) throughout. Also, the GI50 in assay [13], in [14], in assay [15], in [17], in assay [18] and in assay [19] was > 100 µM (inactive) in each case. The GI50 in assay [20] is > 100 µM (inactive).
Consider `COC1OC(Cn2c(C)nc(Br)c2Br)C(O)C(O)C1O` (stereo not given), for which the GI50 in [1], in [2], in [3], in assay [4], in assay [5] and in assay [6] was > 100 µM (inactive) throughout. Further, the GI50 in assay [7], in assay [8], in assay [9], in assay [10], in assay [11] and in assay [12] was > 100 µM (inactive) in each case. In addition, the GI50 in assay [13] was > 10 µM (inactive); in assay [14] it was > 100 µM (inactive); in assay [15], > 100 µM (inactive); in [17] it was > 100 µM (inactive); in assay [18] it was > 100 µM (inactive); in assay [19] it was > 100 µM (inactive).
In the case of `O=C(Nc1ccn(C2CCC(CO)O2)c(=O)n1)c1ccccc1` (stereo not given), the GI50 in assay [1], in assay [2], in assay [3], in assay [4], in assay [5] and in [6] was > 100 µM (inactive) in each case. For the same molecule, the GI50 in assay [7], in assay [8], in [9], in [10], in assay [11] and in [12] was > 100 µM (inactive) throughout. The GI50 in assay [13], in assay [14], in [15], in [16], in [17] and in assay [18] was > 100 µM (inactive) throughout. Also, in [20], the GI50 was > 100 µM (inactive).
As to `Cc1ccc(-c2n[nH]c(=O)n2N2C(=O)C=CC2=O)cc1`, the GI50 in assay [1], in assay [2], in assay [3], in [4], in assay [5] and in [6] was > 100 µM (inactive) throughout. The GI50 in [7], in assay [8], in assay [9], in assay [10], in assay [11] and in assay [12] was > 100 µM (inactive) in each case. Besides, the GI50 in assay [13], in [14], in [15], in assay [16], in [17] and in assay [19] was > 100 µM (inactive) each time. Besides, in [20], the GI50 is > 100 µM (inactive).

Source of the values: ChEMBL document CHEMBL1201862, “PubChem BioAssay data set” (2004).
